Data set [1] relates to Machupo mammarenavirus. The data set can be described thus: Antiviral activity against pseudotyped Machupo virus. The following applies: Mammarenavirus machupoense. The class given is functional, organism-based.
The subject of data set [2] is Lassa virus. Description: Antiviral activity against pseudotyped Lassa mammarenavirus. The class given is functional, organism-based. The settings on record: Mammarenavirus lassaense.
Data set [3] has as its system Junin virus. The data set can be described thus: Antiviral activity against pseudotyped Junin virus. The format is functional, organism-based. The following applies: Mammarenavirus juninense.
For data set [4], the target named is hERG (KCNH2) (Homo sapiens, UniProt Q12809). Description: Inhibition of human ERG at 3 uM relative to control.
hERG (KCNH2), sequence (Q12809 whole entry): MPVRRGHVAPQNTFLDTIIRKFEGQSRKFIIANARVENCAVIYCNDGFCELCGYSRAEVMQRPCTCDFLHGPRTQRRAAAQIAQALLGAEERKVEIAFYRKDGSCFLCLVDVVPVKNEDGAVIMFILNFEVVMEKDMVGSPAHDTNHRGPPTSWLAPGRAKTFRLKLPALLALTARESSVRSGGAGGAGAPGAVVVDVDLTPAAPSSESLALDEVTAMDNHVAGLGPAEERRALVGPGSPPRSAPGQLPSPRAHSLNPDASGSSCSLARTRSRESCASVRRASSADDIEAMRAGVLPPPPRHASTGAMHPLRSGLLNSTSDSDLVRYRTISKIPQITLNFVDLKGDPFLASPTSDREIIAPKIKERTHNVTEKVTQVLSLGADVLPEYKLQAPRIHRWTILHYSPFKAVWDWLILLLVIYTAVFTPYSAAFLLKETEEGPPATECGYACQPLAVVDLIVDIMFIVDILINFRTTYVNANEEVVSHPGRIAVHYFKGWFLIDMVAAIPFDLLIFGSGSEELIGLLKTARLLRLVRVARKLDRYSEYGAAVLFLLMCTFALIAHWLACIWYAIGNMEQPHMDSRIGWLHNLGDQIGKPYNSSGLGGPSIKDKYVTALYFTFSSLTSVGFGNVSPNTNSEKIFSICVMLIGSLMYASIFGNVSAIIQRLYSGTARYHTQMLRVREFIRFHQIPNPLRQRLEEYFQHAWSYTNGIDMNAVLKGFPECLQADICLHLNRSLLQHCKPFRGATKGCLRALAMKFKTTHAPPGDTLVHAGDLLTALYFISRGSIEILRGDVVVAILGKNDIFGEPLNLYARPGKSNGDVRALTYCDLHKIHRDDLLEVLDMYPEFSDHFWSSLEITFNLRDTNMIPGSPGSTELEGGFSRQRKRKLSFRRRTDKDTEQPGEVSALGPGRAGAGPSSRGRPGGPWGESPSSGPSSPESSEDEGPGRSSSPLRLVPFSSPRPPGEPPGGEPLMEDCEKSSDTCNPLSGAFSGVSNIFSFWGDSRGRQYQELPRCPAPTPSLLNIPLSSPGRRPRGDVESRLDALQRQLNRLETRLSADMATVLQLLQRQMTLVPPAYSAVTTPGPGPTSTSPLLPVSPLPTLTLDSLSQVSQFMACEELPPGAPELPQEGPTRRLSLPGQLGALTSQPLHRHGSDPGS
The nature of data set [5]: (§1) Cytotoxicity against African green monkey Vero cells measured after 5 days. The class given is cell-based. The settings on record: chlorocebus sabaeus, Vero cells; time 5 day.
Data set [6] has as its system Lassa virus. The data set can be described thus: Antiviral activity against Lassa virus by virus yield reduction assay. The format is functional, organism-based. The following applies: Mammarenavirus lassaense.
The target in data set [7] is T1, CYP1A2 (Homo sapiens, UniProt P05177).
T1 sequence (P05177 whole entry): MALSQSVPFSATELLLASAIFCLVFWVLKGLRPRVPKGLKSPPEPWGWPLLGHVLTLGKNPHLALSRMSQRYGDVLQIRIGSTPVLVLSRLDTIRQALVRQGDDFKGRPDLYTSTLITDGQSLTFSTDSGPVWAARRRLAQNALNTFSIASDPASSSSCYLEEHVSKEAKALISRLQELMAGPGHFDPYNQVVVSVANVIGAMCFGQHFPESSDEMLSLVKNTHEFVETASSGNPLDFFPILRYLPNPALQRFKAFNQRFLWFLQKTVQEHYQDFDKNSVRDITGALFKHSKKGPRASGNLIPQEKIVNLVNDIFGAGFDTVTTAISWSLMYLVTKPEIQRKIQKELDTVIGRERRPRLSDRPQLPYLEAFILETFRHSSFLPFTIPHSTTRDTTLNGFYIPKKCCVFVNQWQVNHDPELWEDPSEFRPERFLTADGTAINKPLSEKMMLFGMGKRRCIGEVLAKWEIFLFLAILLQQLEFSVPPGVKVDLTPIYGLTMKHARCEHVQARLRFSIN
The data set can be described thus: Inhibition of CYP1A2 (unknown origin) at 20 uM. The format is ADME.

The target in data set [8] is CYP2C9 (Homo sapiens, UniProt P11712). The data set can be described thus: Inhibition of CYP2C9 (unknown origin) at 20 uM. The class given is ADME.
CYP2C9, sequence (P11712 whole entry): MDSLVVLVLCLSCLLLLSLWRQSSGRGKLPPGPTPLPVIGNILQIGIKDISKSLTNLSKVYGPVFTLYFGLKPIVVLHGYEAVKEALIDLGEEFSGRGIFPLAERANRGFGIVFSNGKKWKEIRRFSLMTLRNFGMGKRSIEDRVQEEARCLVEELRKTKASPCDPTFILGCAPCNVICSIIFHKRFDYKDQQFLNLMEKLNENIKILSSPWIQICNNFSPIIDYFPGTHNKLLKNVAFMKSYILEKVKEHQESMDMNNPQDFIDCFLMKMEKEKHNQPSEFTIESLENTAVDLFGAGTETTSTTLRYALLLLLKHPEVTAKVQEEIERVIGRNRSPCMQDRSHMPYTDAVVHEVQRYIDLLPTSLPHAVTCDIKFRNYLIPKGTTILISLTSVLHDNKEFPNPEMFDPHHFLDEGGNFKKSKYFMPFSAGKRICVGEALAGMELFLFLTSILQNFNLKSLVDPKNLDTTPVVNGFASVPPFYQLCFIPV
The target in data set [9] is CYP2C19 (Homo sapiens, UniProt P33261). Description: Inhibition of CYP2C19 (unknown origin) at 20 uM. The class given is ADME.
CYP2C19, sequence (P33261 whole entry): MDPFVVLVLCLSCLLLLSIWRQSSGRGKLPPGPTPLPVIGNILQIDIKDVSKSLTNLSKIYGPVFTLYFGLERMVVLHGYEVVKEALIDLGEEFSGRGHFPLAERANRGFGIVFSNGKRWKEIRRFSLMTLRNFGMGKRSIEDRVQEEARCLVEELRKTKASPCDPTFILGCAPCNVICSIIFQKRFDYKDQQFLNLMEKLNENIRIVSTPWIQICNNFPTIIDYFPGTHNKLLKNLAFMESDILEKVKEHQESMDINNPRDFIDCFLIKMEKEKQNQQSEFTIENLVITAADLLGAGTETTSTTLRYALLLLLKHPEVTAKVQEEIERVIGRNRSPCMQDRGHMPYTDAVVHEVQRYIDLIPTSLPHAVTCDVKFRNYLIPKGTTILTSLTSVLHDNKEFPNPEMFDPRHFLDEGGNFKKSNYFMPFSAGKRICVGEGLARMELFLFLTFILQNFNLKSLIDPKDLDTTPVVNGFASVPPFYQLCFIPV
For data set [10], the target named is CYP3A4 (Homo sapiens, UniProt P08684). The data set can be described thus: Inhibition of CYP3A4 (unknown origin) at 20 uM. The format is ADME.
CYP3A4, sequence (P08684 whole entry): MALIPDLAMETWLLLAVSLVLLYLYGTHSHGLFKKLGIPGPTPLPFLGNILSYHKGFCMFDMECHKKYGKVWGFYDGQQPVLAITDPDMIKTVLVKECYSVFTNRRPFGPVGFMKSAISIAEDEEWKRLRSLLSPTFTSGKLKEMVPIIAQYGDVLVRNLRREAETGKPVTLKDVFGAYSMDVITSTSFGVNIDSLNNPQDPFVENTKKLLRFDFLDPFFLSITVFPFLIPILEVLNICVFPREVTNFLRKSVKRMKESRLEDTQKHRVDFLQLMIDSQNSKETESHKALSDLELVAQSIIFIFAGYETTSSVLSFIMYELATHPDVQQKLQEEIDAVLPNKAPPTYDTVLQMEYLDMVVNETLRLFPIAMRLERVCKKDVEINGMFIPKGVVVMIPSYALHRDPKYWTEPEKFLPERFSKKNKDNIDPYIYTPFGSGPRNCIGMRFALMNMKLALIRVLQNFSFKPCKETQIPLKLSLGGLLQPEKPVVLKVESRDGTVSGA
For data set [11], the target named is CYP2D6 (Homo sapiens, UniProt P10635). The data set can be described thus: Inhibition of CYP2D6 (unknown origin) at 20 uM. The class given is ADME.
CYP2D6, sequence (P10635 whole entry): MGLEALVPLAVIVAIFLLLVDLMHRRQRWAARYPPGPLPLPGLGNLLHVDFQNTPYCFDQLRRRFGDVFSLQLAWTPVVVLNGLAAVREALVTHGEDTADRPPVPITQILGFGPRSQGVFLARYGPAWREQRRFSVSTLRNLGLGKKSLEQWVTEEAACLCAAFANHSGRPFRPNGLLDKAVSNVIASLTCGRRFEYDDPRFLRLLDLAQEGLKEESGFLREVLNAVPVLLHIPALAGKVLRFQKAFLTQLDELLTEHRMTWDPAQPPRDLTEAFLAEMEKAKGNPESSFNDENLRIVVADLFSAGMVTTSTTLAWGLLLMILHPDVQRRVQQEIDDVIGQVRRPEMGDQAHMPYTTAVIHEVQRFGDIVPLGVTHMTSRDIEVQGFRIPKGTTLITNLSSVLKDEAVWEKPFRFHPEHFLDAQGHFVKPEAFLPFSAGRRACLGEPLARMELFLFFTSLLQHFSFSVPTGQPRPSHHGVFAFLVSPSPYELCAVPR
In data set [12] the test system is Lassa virus. Description: Antiviral activity against Lassa virus by plaque reduction assay. The class given is functional, organism-based. The following applies: Mammarenavirus lassaense. Background: Plaques are areas of infected cells; plaque reduction assays count them against a control.
For data set [13], the system named is Vero. The data set is described as §1. The class given is cell-based. The settings on record: chlorocebus sabaeus, vero, 120 h; time 5 day.
Data set [14] has as its system Junin virus. Description: Antiviral activity against Junin virus by virus yield reduction assay. The settings on record: Mammarenavirus juninense. The format is functional, organism-based.

Consider `CC(C)Oc1ccc(-c2cnc3ccc(-c4ccc(OC(C)C)cc4F)cn23)cc1`, for which the EC50 in data set [1], in data set [2] and in data set [3] was more than 25 nM each time.

`CC(C)Oc1ccc(-c2cnc3ncc(-c4ccc(OC(C)C)cc4)n3c2)cc1` came in with an inhibition at 3 µM in [4] of 37%.

As to `CC(C)Oc1ccc(-c2ccn3cnc(-c4ccc(OC(C)C)cc4)c3c2)cc1`, the EC50 in data set [1] is more than 25 nM; in [2], 20.9 nM; in data set [3], 21.8 nM. In data set [5], this compound registered a CC50 at 120 h of 7540 nM.

Take `Cc1cc2ncn(-c3ccc(OC(C)C)cc3)c2cc1-c1ccc(OC(C)C)cc1`: the EC50 was 0.17 nM in [1]; 1.2 nM in data set [6]; 0.65 nM in [2]; 0.11 nM in data set [3]; less than 3.3 nM in data set [12]. The EC90 in [6] was 2.1 nM; in data set [12] it was less than 4.2 nM. The inhibition at 20 µM in [7] was less than 21%; in data set [8], less than 21%; in data set [9], less than 21%; in [10], 44%; in [11] it was less than 21%. Further, in [4], the inhibition at 3 µM is less than 10%.

For the compound `CC(C)Oc1ccc(-c2ccc3nnc(-c4ccc(OC(C)C)cc4)n3c2)cc1`, at 3 µM the inhibition in [4] was 57%.

For the compound `Cc1c(-c2ccc(OC(C)C)cc2)ccc2ncc(-c3ccc(OC(C)C)cc3)n12`, the figures for the EC50 in data set [1], in data set [2] and in data set [3] were 0.16 nM, 0.32 nM and 0.17 nM, respectively. Further, the half-maximal cytotoxic concentration (CC50) in [13] is 4190 nM.

For the compound `CC(C)Oc1ccc(-c2ccc3cnn(-c4ccc(OC(C)C)cc4)c3c2)cc1`, the figures for the EC50 in [1], in [2] and in [3] were more than 25 nM, more than 25 nM and 14 nM, respectively.

In data set [4], `CC(C)Oc1ccc(-c2ccc3nnn(-c4ccc(OC(C)C)cc4)c3c2)cc1` showed an inhibition at 3 µM of 17%.

Consider `CC(C)Oc1ccc(-c2cnc3ccc(-c4ccc(C(N)=O)cc4)cn23)cc1`, for which the EC50 in data set [1], in [2] and in data set [3] was more than 25 nM in each case.

On to `Cc1cc2ncn(-c3ccc(OC(C)(C)C)cc3)c2cc1-c1ccc(OC(C)(C)O)cc1`, for which the half-maximal effective concentration (EC50) in [1] is 0.12 nM; in data set [6], less than 0.3 nM; in [2] it was 4 nM; in [3], 1 nM; in [14], 0.9 nM; in [12], less than 3.3 nM. Besides, the EC90 in data set [6] is less than 0.3 nM; in data set [14], 6.2 nM; in [12], less than 3.3 nM. The inhibition at 20 µM in data set [7], in [8], in [9], in data set [10] and in data set [11] was less than 21% in each case. Further, the inhibition at 3 µM in data set [4] was less than 10%.

In turn, `CC(C)Oc1ccc(-c2ccc3ncn(-c4ccc(OC(C)C)cc4)c3c2)cc1` came in with an inhibition at 3 µM in [4] of 30%.

In turn, `CC(C)Oc1ccc(-c2ccc3ncc(-c4ccc(OC(C)C)cc4)n3c2)cc1` came in with an inhibition at 3 µM in data set [4] of 89%.

As for `Cc1cc2ncc(-c3ccc(OC(C)(C)C)cc3)n2cc1-c1ccc(OC(C)C)cc1`, the EC50 in data set [1] is 0.17 nM; in data set [6], less than 0.3 nM; in data set [2], 0.68 nM; in [3], 0.3 nM; in data set [14] it was 0.6 nM; in data set [12], less than 3.3 nM. The EC90 in data set [6] was 0.87 nM; in data set [14], 1.2 nM; in data set [12], less than 3.3 nM. Also, the inhibition at 20 µM in data set [7], in [8], in data set [9], in [10] and in data set [11] was less than 21% each time. Moreover, in [4], the inhibition at 3 µM was less than 10%.

Consider `CC(C)Oc1ccc(-c2cnc3ccc(-c4ccc(OCCN5CCOCC5)cc4)cn23)cc1`, for which the EC50 in data set [1], in data set [2] and in data set [3] was more than 25 nM in each case.

With `CC(C)Oc1ccc(-c2ccc3ncn(-c4ccc(OC(C)C)cc4)c3n2)cc1`, in data set [4], the inhibition at 3 µM is less than 10%.

With `Cc1cc2nnn(-c3ccc(OC(C)C)cc3)c2cc1-c1ccc(OC(C)C)cc1`, the EC50 in [1] was 0.52 nM; in data set [2], 1.05 nM; in data set [3], 0.21 nM; in data set [14], less than 1 nM. Besides, the inhibition at 3 µM in data set [4] is less than 10%. It took 2.4 nM to reach the 90% level in data set [14] (EC90).

`Cc1cc2ncc(-c3ccc(OC(C)C)cc3)n2cc1-c1ccc(OC(C)C)cc1`: the inhibition at 20 µM in [7], in [8], in [9], in data set [10] and in [11] was less than 21% each time. In [4], the inhibition at 3 µM is 14%.

On to `CC(C)Oc1ccc(-c2ccc3ncc(-c4ccc(OC(C)(C)C)cc4)n3c2)cc1`, for which testing at 3 µM in [4] gave an inhibition of 48%.

Turning to `CC(C)Oc1ccc(-c2ccc3ccn(-c4ccc(OC(C)C)cc4)c3c2)cc1`, the half-maximal effective concentration (EC50) was 20.6 nM in data set [1], more than 25 nM in [2] and 0.89 nM in data set [3].

As for `CC(C)Oc1ccc(-c2ccc3cnc(-c4ccc(OC(C)C)cc4)n3c2)cc1`, the EC50 in data set [1], in data set [2] and in [3] was more than 25 nM throughout.

One may read the EC50 as the concentration giving half of the maximal effect. As a reminder, the inhibition is the change of the read-out against control, counted positive when it falls. The term CC50 denotes the concentration at which the toxic effect on the cells reaches its halfway point. What is called EC90 is the point of the concentration-response curve where the effect stands at 90%.

The values above are taken from ChEMBL document CHEMBL4814074 (Bioorg Med Chem Lett, 2021).
